# Test results as given in PMC6272548, “Synthesis and Antiplatelet Activity of Antithrombotic Thiourea Compounds: Biological and Structure-Activity Relationship Studies” (Molecules, 2015).
# Read-outs that look alike come from different tables or passages of the source.
# Legend:
# human platelets = assay: Platelet aggregation of human citrated platelet-rich plasma induced by arachidonic acid (turbidimetric); type: cell-based
# Procedure: The human blood samples were obtained from adult volunteers, who abstained from the use of drugs or other substances that could interfere with the experiment for at least 15 days prior. […] The platelet rich (PRP) and poor (PPP) plasma were prepared by differential centrifugation and platelet aggregation was monitored using the turbidimetric method described by Born and Cross with an aggregometer 4-Pack® (Helena Laboratories, Beaumount, TX, USA). Different concentrations of the synthetic derivatives and the vehicle (DMSO 1%) were pre-incubated for 2 min before addition of the agonists (500 μM arachidonic acid and 5 μg/mL collagen). The platelet aggregation tests were performed in triplicate and the data were statistically analyzed.
# Salmonella typhimurium = assay: Reverse mutagenesis to histidine prototrophy (Ames test), spot test; conditions: without metabolic activation; 10 µM, 100 µM and 500 µM
# Procedure: This assay was performed as described by Maron and Ames, using the histidine Salmonella typhimurium auxotroph mutant strains TA97, TA98, TA100 and the […] TA102 (Table 5).
# [1] = Homo sapiens, Platelet, read-out: IC50, concentration that caused 50% inhibition of platelet aggregation, arachidonic acid-induced (500 μM), human platelet-rich plasma
compound,measurement,setting,value
"CNC(=S)Nc1ccccc1 [3a, N-Methyl-N'-phenylthiourea]",IC50,human platelets; [1],308 ± 10.4 µM
same,Ames Test S. typhimurium TA97,Salmonella typhimurium,-
same,Ames Test S. typhimurium TA98,Salmonella typhimurium,-
same,Ames Test S. typhimurium TA100,Salmonella typhimurium,-
same,Ames Test S. typhimurium TA102,Salmonella typhimurium,-
"S=C(NCCc1ccccc1)NC1CCCCC1 [3n, N-Cyclohexyl-N'-(2-phenethyl)thiourea]",IC50,human platelets; [1],277 ± 42.9 µM
same,melting point,,109 to 111 °C
same,Ames Test S. typhimurium TA97,Salmonella typhimurium,-
same,Ames Test S. typhimurium TA98,Salmonella typhimurium,-
same,Ames Test S. typhimurium TA100,Salmonella typhimurium,-
same,Ames Test S. typhimurium TA102,Salmonella typhimurium,-
"S=C(Nc1ccccc1)NC1CCCCC1 [3b, N-Cyclohexyl-N'-phenylthiourea]",IC50,human platelets; [1],153 ± 4.5 µM
same,melting point,,149 to 151 °C
same,Ames Test S. typhimurium TA97,Salmonella typhimurium,-
same,Ames Test S. typhimurium TA98,Salmonella typhimurium,-
same,Ames Test S. typhimurium TA100,Salmonella typhimurium,-
same,Ames Test S. typhimurium TA102,Salmonella typhimurium,-
"CC(C)NC(=S)NCc1ccccc1 [3h, N-Benzyl-N'-isopropylthiourea]",IC50,human platelets; [1],214 ± 10.2 µM
same,melting point,,121 to 123 °C
same,Ames Test S. typhimurium TA97,Salmonella typhimurium,-
same,Ames Test S. typhimurium TA98,Salmonella typhimurium,-
same,Ames Test S. typhimurium TA100,Salmonella typhimurium,-
same,Ames Test S. typhimurium TA102,Salmonella typhimurium,-
"COc1cc(NC(=S)Nc2ccc3c(c2)OCO3)cc(OC)c1OC [3q, N-(3,4-Methylenedioxyphenyl)-N'-(3,4,5-trimethoxyphenyl)thiourea]",Antiplatelet activity (in words),human platelets; AA-induced platelet aggregation,lack antiplatelet activity
same,IC50,human platelets; [1],290 ± 21.9 µM
same,melting point,,142 to 144 °C
same,Ames Test S. typhimurium TA97,Salmonella typhimurium,-
same,Ames Test S. typhimurium TA98,Salmonella typhimurium,-
same,Ames Test S. typhimurium TA100,Salmonella typhimurium,-
same,Ames Test S. typhimurium TA102,Salmonella typhimurium,-
"S=C(Nc1ccccc1)Nc1cccc2ccccc12 [3g, N-α-Naphthyl-N'-phenylthiourea]",IC50,"human platelets; read-out: IC50, concentration that caused 50% inhibition of platelet aggregation, arachidonic acid-induced (500 μM), human platelet-rich plasma",142 ± 9 µM
same,Ames Test S. typhimurium TA97,Salmonella typhimurium,-
same,Ames Test S. typhimurium TA98,Salmonella typhimurium,-
same,Ames Test S. typhimurium TA100,Salmonella typhimurium,-
same,Ames Test S. typhimurium TA102,Salmonella typhimurium,-
"CCCCNC(=S)NCCc1ccccc1 [3l, N-Butyl-N'-(2-phenethyl)thiourea]",IC50,human platelets; [1],153 ± 15 µM
same,melting point,,61 to 63 °C
same,Ames Test S. typhimurium TA97,Salmonella typhimurium,-
same,Ames Test S. typhimurium TA98,Salmonella typhimurium,-
same,Ames Test S. typhimurium TA100,Salmonella typhimurium,-
same,Ames Test S. typhimurium TA102,Salmonella typhimurium,-
"OCCNC(=S)Nc1ccccc1 [3c, N-(2-Hydroxyethyl)-N'-phenylthiourea]",IC50,human platelets; [1],170 ± 17.3 µM
same,melting point,,139 to 141 °C
same,Ames Test S. typhimurium TA97,Salmonella typhimurium,-
same,Ames Test S. typhimurium TA98,Salmonella typhimurium,-
same,Ames Test S. typhimurium TA100,Salmonella typhimurium,-
same,Ames Test S. typhimurium TA102,Salmonella typhimurium,-
"S=C(NCCc1ccccc1)Nc1cccc2ccccc12 [3o, N-(α-Naphthyl)-N'-(2-phenethyl)thiourea]",IC50,human platelets; [1],157 ± 19.9 µM
same,melting point,,155 to 157 °C
same,Ames Test S. typhimurium TA97,Salmonella typhimurium,-
same,Ames Test S. typhimurium TA98,Salmonella typhimurium,-
same,Ames Test S. typhimurium TA100,Salmonella typhimurium,-
same,Ames Test S. typhimurium TA102,Salmonella typhimurium,-
"S=C(NCc1ccccc1)Nc1ccc2c(c1)OCO2 [3j, N-Benzyl-N'-(3,4-methylenedioxyphenyl)thiourea]",IC50,human platelets; [1],155 ± 3.6 µM
same,melting point,,114 to 116 °C
same,Ames Test S. typhimurium TA97,Salmonella typhimurium,-
same,Ames Test S. typhimurium TA98,Salmonella typhimurium,-
same,Ames Test S. typhimurium TA100,Salmonella typhimurium,-
same,Ames Test S. typhimurium TA102,Salmonella typhimurium,-
